Reference: US7019019B2, “Matriptase inhibitors and methods of use” (Dendreon Corporation, priority 2002, dated 2006)

Experiments:
Format in all cases: biochemical
[1] = target: T1, Factor Xa (Homo sapiens, UniProt P00742); assay: Factor Xa chromogenic assay (S-2765); conditions: read-out: Ki FXa
T1 construct: purchased Enzyme Research Laboratories, Inc. (South Bend, Ind.)
Procedure: (§1) The ability of compounds to act as a selective inhibitor of matriptase activity was assessed by determining the concentration of test-compound which inhibited the activity of matriptase by 50%, (IC50) as described in Example A, and comparing IC50 value for matriptase to that determined for all or some of the following serine proteases: thrombin, recombinant tissue plasminogen activator (rt-PA), plasmin, activated protein C, chymotrypsin, factor Xa and trypsin.
(§2) The buffer used for all assays was HBSA (10 mM HEPES, pH 7.5, 150 mM sodium chloride, 0.1% bovine serum albumin).
The assay for IC50 determinations was conducted by combining in appropriate wells of a Corning microtiter plate, 50 microliters of HBSA, 50 microliters of the test compound at a specified concentration (covering a broad concentration range) diluted in HBSA (or HBSA alone for V0 (uninhibited velocity) measurement), and 50 microliters of the enzyme diluted in HBSA. Following a 30 minute incubation at ambient temperature, 50 microliters of the substrate at the concentrations specified below were added to the wells, yielding a final total volume of 200 microliters. The initial velocity of chromogenic substrate hydrolysis was measured by the change in absorbance at 405 nm using a Thermo Max® Kinetic Microplate Reader over a 5 minute period in which less than 5% of the added substrate was utilized. […]
Factor Xa catalytic activity was determined using the chromogenic substrate S-2765 (N-benzyloxycarbonyl-D-arginine-L-glycine-L-arginine-p-nitro aniline), obtained from DiaPharma Group (Franklin, Ohio). All substrates were reconstituted in deionized water prior to use. […] Purified human Factor X was obtained from Enzyme Research Laboratories, Inc. (South Bend, Ind.) and Factor Xa (FXa) was activated and prepared from it as described [Bock, P. E., Craig, P. A., Olson, S. T., and Singh, P. Arch. Biochem. Biophys. 273:375-388 (1989)]. The enzyme was diluted into HBSA prior to assay in which the final concentration was 0.25 nM.

[2] = target: α-thrombin (Homo sapiens, UniProt P00734); assay: Thrombin (fIIa) chromogenic assay (Pefachrome t-PA)
Procedure: as §1, §2
(§3) The assay for IC50 determinations was conducted by combining in appropriate wells of a Corning microtiter plate, 50 microliters of HBSA, 50 microliters of the test compound at a specified concentration (covering a broad concentration range) diluted in HBSA (or HBSA alone for V0 (uninhibited velocity) measurement), and 50 microliters of the enzyme diluted in HBSA. Following a 30 minute incubation at ambient temperature, 50 microliters of the substrate at the concentrations specified below were added to the wells, yielding a final total volume of 200 microliters. The initial velocity of chromogenic substrate hydrolysis was measured by the change in absorbance at 405 nm using a Thermo Max® Kinetic Microplate Reader over a 5 minute period in which less than 5% of the added substrate was utilized. The concentration of added inhibitor which caused a 50% decrease in the initial rate of hydrolysis was defined as the IC50 value.
Enzyme activity was determined using the chromogenic substrate, Pefachrome t-PA (CH3SO2-D-hexahydrotyrosine-glycyl-L-Arginine-p-nitroaniline, obtained from Pentapharm Ltd.). The substrate was reconstituted in deionized water prior to use.
The initial velocity of Pefachrome t-PA hydrolysis was measured by the change in absorbance at 405 nm using a Thermo Max® Kinetic Microplate Reader over a 5 minute period in which less than 5% of the added substrate was utilized. The concentration of added inhibitor which caused a 50% decrease in the initial rate of hydrolysis was defined as the IC50 value.

[3] = target: T2, Matriptase (Homo sapiens, UniProt Q9Y5Y6); assay: Amidolytic assay for inhibition of serine protease activity of matriptase or MTSP1
T2 sequence (Q9Y5Y6 1-855 C731S): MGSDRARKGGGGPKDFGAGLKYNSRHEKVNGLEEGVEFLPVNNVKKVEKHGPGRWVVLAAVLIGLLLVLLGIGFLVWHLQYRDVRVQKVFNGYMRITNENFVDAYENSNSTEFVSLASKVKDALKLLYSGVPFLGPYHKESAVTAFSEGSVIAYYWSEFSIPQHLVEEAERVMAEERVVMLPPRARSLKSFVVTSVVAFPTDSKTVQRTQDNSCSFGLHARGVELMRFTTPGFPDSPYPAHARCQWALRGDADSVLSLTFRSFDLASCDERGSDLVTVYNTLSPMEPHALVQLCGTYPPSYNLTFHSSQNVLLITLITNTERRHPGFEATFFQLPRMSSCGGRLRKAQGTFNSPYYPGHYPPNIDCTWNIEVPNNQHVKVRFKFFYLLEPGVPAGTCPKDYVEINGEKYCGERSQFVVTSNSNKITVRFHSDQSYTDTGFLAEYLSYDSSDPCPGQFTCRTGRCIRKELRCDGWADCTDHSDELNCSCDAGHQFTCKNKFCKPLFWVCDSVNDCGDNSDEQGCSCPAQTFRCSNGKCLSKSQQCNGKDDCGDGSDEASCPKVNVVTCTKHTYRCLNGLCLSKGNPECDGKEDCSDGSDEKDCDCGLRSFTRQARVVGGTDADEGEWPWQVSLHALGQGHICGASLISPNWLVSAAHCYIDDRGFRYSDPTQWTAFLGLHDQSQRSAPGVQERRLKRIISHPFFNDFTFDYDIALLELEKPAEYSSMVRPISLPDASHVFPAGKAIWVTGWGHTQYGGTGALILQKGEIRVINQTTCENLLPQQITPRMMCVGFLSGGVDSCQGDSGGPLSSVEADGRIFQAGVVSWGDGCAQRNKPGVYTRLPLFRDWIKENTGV

[4] = target: T3, (Homo sapiens, UniProt Q9BYE2); assay: In vitro enzyme assay for specificity: Endothelin 2
T3 sequence (Q9BYE2 326-586): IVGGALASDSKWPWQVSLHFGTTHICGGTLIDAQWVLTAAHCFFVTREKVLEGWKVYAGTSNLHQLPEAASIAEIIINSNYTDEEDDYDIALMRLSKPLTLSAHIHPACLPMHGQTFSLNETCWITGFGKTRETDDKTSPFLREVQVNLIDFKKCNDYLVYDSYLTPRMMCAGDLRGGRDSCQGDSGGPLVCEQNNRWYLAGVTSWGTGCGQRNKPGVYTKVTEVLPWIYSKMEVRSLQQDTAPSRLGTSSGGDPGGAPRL

[5] = target: T4, (Homo sapiens, UniProt Q9UL52); assay: In vitro enzyme assay for specificity: Endothelin 1
T4 sequence (Q9UL52 192-423): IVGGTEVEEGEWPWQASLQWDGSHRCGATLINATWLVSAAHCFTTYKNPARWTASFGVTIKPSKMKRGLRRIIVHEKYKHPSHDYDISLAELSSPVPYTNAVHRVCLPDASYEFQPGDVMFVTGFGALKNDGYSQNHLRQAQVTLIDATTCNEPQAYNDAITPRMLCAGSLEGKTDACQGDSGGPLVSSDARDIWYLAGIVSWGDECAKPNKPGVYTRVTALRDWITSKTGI

[6] = target: plasmin (Homo sapiens, UniProt P00747); assay: Plasmin chromogenic assay (S-2366)
Procedure: as §1, §2, §3
Plasmin catalytic activity was determined using the chromogenic substrate, S-2366 [L-pyroglutamyl-L-prolyl-L-arginine-p-nitroaniline hydrochloride], which was obtained from DiaPharma group. The substrate was made up in deionized water followed by dilution in HBSA prior to the assay in which the final concentration was 300 micromolar (about 2.5-times Km). Purified human plasmin was obtained from Enzyme Research Laboratories, Inc. The enzyme was diluted into HBSA prior to assay in which the final concentration was 1.0 nM.

Sequence of plasmin (P00747 581-810 limits assumed): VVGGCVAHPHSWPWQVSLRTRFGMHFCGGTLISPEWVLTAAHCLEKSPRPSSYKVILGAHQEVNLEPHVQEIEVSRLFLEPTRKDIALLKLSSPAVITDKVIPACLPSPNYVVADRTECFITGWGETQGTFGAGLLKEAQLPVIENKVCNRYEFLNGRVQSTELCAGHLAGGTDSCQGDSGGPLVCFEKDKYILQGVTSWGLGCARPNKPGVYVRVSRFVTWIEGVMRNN
Sequence of plasmin (P00747 97-580 partner limits assumed): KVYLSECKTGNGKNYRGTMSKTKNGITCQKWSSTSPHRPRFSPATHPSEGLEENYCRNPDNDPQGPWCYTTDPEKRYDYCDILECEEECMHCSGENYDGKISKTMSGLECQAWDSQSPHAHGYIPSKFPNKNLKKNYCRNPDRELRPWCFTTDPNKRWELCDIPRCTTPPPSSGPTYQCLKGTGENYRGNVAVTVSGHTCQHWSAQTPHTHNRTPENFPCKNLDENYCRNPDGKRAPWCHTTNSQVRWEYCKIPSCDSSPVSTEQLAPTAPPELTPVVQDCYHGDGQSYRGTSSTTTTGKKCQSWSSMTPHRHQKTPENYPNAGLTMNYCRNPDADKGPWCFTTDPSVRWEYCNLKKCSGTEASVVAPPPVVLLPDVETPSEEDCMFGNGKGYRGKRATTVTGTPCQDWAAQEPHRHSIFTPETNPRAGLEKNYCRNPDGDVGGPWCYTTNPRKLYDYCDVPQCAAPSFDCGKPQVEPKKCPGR
T1 sequence (P00742 235-488 limits assumed): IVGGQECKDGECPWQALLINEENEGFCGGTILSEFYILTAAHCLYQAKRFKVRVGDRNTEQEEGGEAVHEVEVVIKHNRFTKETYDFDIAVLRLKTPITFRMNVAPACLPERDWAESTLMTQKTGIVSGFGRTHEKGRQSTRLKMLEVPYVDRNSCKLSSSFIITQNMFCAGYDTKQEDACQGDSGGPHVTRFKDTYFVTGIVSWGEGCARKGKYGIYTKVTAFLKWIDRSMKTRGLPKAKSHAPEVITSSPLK
T1 sequence (P00742 41-179 partner limits assumed): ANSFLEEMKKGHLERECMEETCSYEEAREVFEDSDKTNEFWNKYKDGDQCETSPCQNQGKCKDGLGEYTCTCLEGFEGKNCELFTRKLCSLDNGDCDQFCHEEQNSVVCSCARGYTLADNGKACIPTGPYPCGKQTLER

Compound | Ki [1] [nM] | Ki [2] [nM] | Ki [3] [nM] | Ki [4] [nM] | Ki [5] [nM] | Ki [6] [nM]
3(3-Amdn)Bn-3(Methsulfone)hydantoin-G-(2-Amdn)thiazole-2-MeAm | > 2500 | > 2500 | 100 to 250 | > 2500 | > 2500 | –
COC(=O)CCC(N)(Cc1cccc(C(=N)N)c1)C(=O)NCC(=O)NCc1ccc(C(=N)N)s1 (stereo not drawn) [(Me)E(alpha-(3-Amdn)Bn)-G-(2-Amdn)thiophene-5MeAm] | – | – | 100 to 250 | – | – | –
N=C(N)c1cccc(CC(N)(CCC(=O)O)C(=O)NCC(=O)NCc2ccc(C(=N)N)s2)c1 (stereo not drawn) [E(alpha-(3-Amdn)Bn)-G-(2-Amdn)thiophene-5MeAm] | 500 to 2500 | 500 to 2500 | 100 to 250 | – | – | 500 to 2500
COC(=O)N[C@](CCC(=O)OC(C)(C)C)(Cc1cccc(C(=N)N)c1)C(=O)NCC(=O)NCc1ccc(C(=N)N)s1 [MeOCO(t-Bu)E(R)(alpha-(3-Amdn)Bn)-G-(2-Amdn)thiophene-5-MeAm] | 500 to 2500 | > 2500 | < 100 | – | – | > 2500
COC(=O)CC[C@](Cc1cccc(C(=N)N)c1)(NC(=O)OC)C(=O)NCC(=O)NCc1nc(C(=N)N)cs1 [MeOCO-(Me)E(α-(3-Amdn)Bn)-G-(4-Amdn)thiazole-2-MeAm] | > 2500 | > 2500 | 250 to 500 | – | – | –
COC(=O)NC(CCC(=O)OC(C)(C)C)(Cc1cccc(C(=N)N)c1)C(=O)NCC(=O)NCc1ccc(C(=N)N)cc1 (stereo not drawn) [MeOCO-E(O-t-Butyl)(alpha-(3-Amdn)Bn)-G-(4-Amdn)BnAm] | > 2500 | 250 to 500 | 100 to 250 | – | – | –
COC(=O)NC(CCS(C)(=O)=O)(Cc1ccnc(N)c1)C(=O)NCC(=O)NCc1ccc(C(=N)N)s1 (stereo not drawn) [N-MeOCO-(α-(3-Am)4-pyrMe)M(O2)-G-(2-Amdn)thiophene-5-MeAm] | 250 to 500 | > 2500 | 100 to 250 | – | – | –
N=C(N)c1cccc(C[C@@]2(C(=O)NCC(=O)NCc3ccc(C(=N)N)s3)CCC(=O)N2)c1 [α-(3-Amdn)BnPyro-G-(2-Amdn)thiophene-5-MeAm] | > 2500 | 500 to 2500 | < 100 | – | – | 500 to 2500
alpha-(3-amidinoBn)MeSO2-G-(2-Amdn)thiophene-5-MeAm | 500 to 2500 | – | < 100 | – | > 2500 | > 2500
iBoc-(Me)E(R)(alpha-(3-Amdn)Bn)-G-(2-Amdn)thiophene-5MeAm | – | 250 to 500 | 250 to 500 | – | – | –
